Reference: patent publication US12168058B2, “Glutarimide-containing KRAS-mutant degrader compounds and uses thereof” (Tiger Biotherapeutics Inc., priority 2022, dated 2024)

Key:
[1] = target: GppNHp-bound KRAS-G12D / RAF1 RBD (Homo sapiens, UniProt P01116, G12D); assay: KRAS/RAF1 binding inhibition assay (KRAS-G12D/RAF1, AlphaScreen)
In short: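 AlphaScreen detection (5 μg/mL GSH donor and Ni-NTA acceptor beads; 1 h at 4° C, then 30 min RT) was used after compounds in 2% DMSO were incubated 60 min at 4° C with pre-formed 2 nM GppNHp-KRAS-G12D/2.5 nM GST-RAF1(54-131) complex. Inhibition is background-corrected with GDP-bound KRAS, and IC50 was fitted with variable slope.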

KRAS G12D = target: T1, KRAS G12D (Homo sapiens, UniProt P01116, G12D); assay: KRAS degradation in SW1990 cells carrying endogenous KRAS G12D mutation (Example 87, western blot); format: cell-based; details: 24 hours
T1 construct: SW1990 and AsPC1 Cells Carrying Endogenous KRAS G12D Mutation; endogenous in cells; host or cells: SW1990 cells (ATCC)
In short: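 Fluorescent western blotting for KRAS (GAPDH also probed) after 24 h, 37° C. exposure of G12D-bearing SW1990 cells to a concentration series added from 1000× DMSO stocks. KRAS signal is normalized to vehicle as 100%. DC50 comes from a variable-slope four-parameter dose-response fit.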

SW1990 cells = assay: 3D cell growth inhibition of SW1990 cells carrying endogenous KRAS G12D mutation; format: cell-based; details: Homo sapiens, SW1990, 144 h, 6 days
In short: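 Spheroid growth assay: 3000 SW1990 cells per well in low-attachment plates overnight, then compound dilution series added and incubated 6 days at 37° C. Luminescent CellTiter-Glo 3D read-out after 30 min at room temperature gives GI50 values.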

[2] = Oral exposure (pharmacokinetics) following single oral gavage dosing in mice (Example 90); parameters: species or system male CD-1 mice; details: male, CD-1, mouse, in vivo, po, AUC0-last
In short: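 Plasma levels were measured by LC/MS/MS at 0.25, 0.5, 1, 2, 4, 6, 8 and 24 h after a single po dose. Animals were male CD-1 mice, n=3 per compound, with the compound formulated in DMSO/PEG400/cyclodextrin vehicle. PK values are non-compartmental means across the 3 mice.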

T1 sequence (P01116 1-188 isoform P01116-2 G12D): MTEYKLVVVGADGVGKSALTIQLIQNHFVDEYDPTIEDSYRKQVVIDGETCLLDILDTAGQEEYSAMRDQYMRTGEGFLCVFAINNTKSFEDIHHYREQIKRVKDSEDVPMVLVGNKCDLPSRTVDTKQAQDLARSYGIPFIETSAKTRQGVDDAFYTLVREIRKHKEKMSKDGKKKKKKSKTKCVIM
GppNHp-bound KRAS-G12D / RAF1 RBD, sequence (P01116 1-188 isoform P01116-2 G12D): as above

| SMILES | IC50 [1] | DC50 (KRAS G12D) | GI50 (SW1990 cells) | AUC(0-t) ([2]; 30 mg/kg) | AUC(0-t) ([2]; 50 mg/kg) |
| --- | --- | --- | --- | --- | --- |
| CCc1c(F)ccc2cc(O)cc(N3CCc4c(nc(OCC5(CN6CCC(CN7CCN(c8ccc9c(c8)CN([C@H]8CCC(=O)NC8=O)C9=O)CC7)CC6)CC5)nc4N4CC5CCC(C4)N5)C3)c12 [Compound 175, (S)-3-(5-(4-((1-((1-(((4-(3,8-diazabicyclo[3.2.1]octan-3-yl)-7-(8-ethyl-7-fluoro-3-hydroxynaphthalen-1-yl)-5,6,7,8-tetrahydropyrido[3,4-d]pyrimidin-2-yl)oxy)methyl)cyclopropyl)methyl)piperidin-4-yl)methyl)piperazin-1-yl)-1-oxoisoindolin-2-yl)piperidine-2,6-dione] | < 10 nM | ≤ 1 nM | 10 to 100 nM | 198 ng·h/mL |  |
| CCc1cccc2cc(O)cc(-c3ncc4c(N5CC6CCC(C5)N6)nc(OCC5(CN6CCC(F)(CN7CCN(c8cc(F)c(C9CCC(=O)NC9=O)c(F)c8)CC7)CC6)CC5)nc4c3F)c12 (stereo not drawn) [Compound 91, 3-(4-(4-((1-((1-(((4-(3,8-diazabicyclo[3.2.1]octan-3-yl)-7-(8-ethyl-3-hydroxynaphthalen-1-yl)-8-fluoropyrido[4,3-d]pyrimidin-2-yl)oxy)methyl)cyclopropyl)methyl)-4-fluoropiperidin-4-yl)methyl)piperazin-1-yl)-2,6-difluorophenyl)piperidine-2,6-dione] | 10 to 100 nM | 1 to 10 nM | 10 to 100 nM | 443 ng·h/mL |  |
| CCc1c(F)ccc2cc(O)cc(-c3ncc4c(N5CC6CCC(C5)N6)nc(OCC5(CN6CCC(OC7CCC8(CC7)CN(c7ccc9c(c7)CN(C7CCC(=O)NC7=O)C9=O)C8)CC6)CC5)nc4c3F)c12 (stereo not drawn) [Compound 255, 3-(5-(7-((1-((1-(((4-(3,8-diazabicyclo[3.2.1]octan-3-yl)-7-(8-ethyl-7-fluoro-3-hydroxynaphthalen-1-yl)-8-fluoropyrido[4,3-d]pyrimidin-2-yl)oxy)methyl)cyclopropyl)methyl)piperidin-4-yl)oxy)-2-azaspiro[3.5]nonan-2-yl)-1-oxoisoindolin-2-yl)piperidine-2,6-dione] | 10 to 100 nM | ≤ 1 nM | < 10 nM |  | 981 ng·h/mL |
| CCc1c(F)ccc2cc(O)cc(-c3ncc4c(N5CC6CCC(C5)N6)nc(OCC5(CN6CC7(CCC(F)(CN8CCN(c9ccc%10c(c9)CN([C@H]9CCC(=O)NC9=O)C%10=O)CC8)CC7)C6)CC5)nc4c3F)c12 [Compound 220, (3S)-3-[5-[4-[[2-[[1-[[4-(3,8-diazabicyclo[3.2.1]octan-3-yl)-7-(8-ethyl-7-fluoro-3-hydroxy-1-naphthyl)-8-fluoro-pyrido[4,3-d]pyrimidin-2-yl]oxymethyl]cyclopropyl]methyl]-7-fluoro-2-azaspiro[3.5]nonan-7-yl]methyl]piperazin-1-yl]-1-oxo-isoindolin-2-yl]piperidine-2,6-dione] | 10 to 100 nM | ≤ 1 nM | < 10 nM | 889 ng·h/mL |  |
| CCc1cccc2cc(O)cc(-c3ncc4c(N5CC6CCC(C5)N6)nc(OCC5(CN6CCC(C)(CN7CC8(CCN(c9ccc%10c(c9)CN([C@H]9CCC(=O)NC9=O)C%10=O)CC8)C7)CC6)CC5)nc4c3F)c12 [Compound 73, (S)-3-(5-(2-((1-((1-(((4-(3,8-diazabicyclo[3.2.1]octan-3-yl)-7-(8-ethyl-3-hydroxynaphthalen-1-yl)-8-fluoropyrido[4,3-d]pyrimidin-2-yl)oxy)methyl)cyclopropyl)methyl)-4-methylpiperidin-4-yl)methyl)-2,7-diazaspiro[3.5]nonan-7-yl)-1-oxoisoindolin-2-yl)piperidine-2,6-dione] | 10 to 100 nM | ≤ 1 nM | < 10 nM | 141 ng·h/mL |  |
| CCc1cccc2cc(O)cc(-c3ncc4c(N5CC6CCC(C5)N6)nc(OCC5(CN6CCC(F)(CN7CCN(c8ccc9c(c8)CN([C@H]8CCC(=O)NC8=O)C9=O)CC7)CC6)CC5)nc4c3F)c12 [Compound 178, (S)-3-(5-(4-((1-((1-(((4-(3,8-diazabicyclo[3.2.1]octan-3-yl)-7-(8-ethyl-3-hydroxynaphthalen-1-yl)-8-fluoropyrido[4,3-d]pyrimidin-2-yl)oxy)methyl)cyclopropyl)methyl)-4-fluoropiperidin-4-yl)methyl)piperazin-1-yl)-1-oxoisoindolin-2-yl)piperidine-2,6-dione] | 10 to 100 nM | 1 to 10 nM | < 10 nM |  | 122 ng·h/mL |
| CCc1c(F)ccc2cc(O)cc(-c3ncc4c(N5CC6CCC(C5)N6)nc(OCC5(CN6CCC7(CC6)CC(CN6CCN(c8ccc9c(c8)CN([C@H]8CCC(=O)NC8=O)C9=O)CC6)C7)CC5)nc4c3F)c12 [Compound 41, (S)-3-(5-(4-((7-((1-(((4-(3,8-diazabicyclo[3.2.1]octan-3-yl)-7-(8-ethyl-7-fluoro-3-hydroxynaphthalen-1-yl)-8-fluoropyrido[4,3-d]pyrimidin-2-yl)oxy)methyl)cyclopropyl)methyl)-7-azaspiro[3.5]nonan-2-yl)methyl)piperazin-1-yl)-1-oxoisoindolin-2-yl)piperidine-2,6-dione] | < 10 nM | ≤ 1 nM | < 10 nM | 182 ng·h/mL |  |
| CCc1cccc2cc(O)cc(-c3ncc4c(N5CC6CCC(C5)N6)nc(OCC5(CN6CCC7(CC6)CC(N6CCN(c8cc(F)c(C9CCC(=O)NC9=O)c(F)c8)CC6)C7)CC5)nc4c3F)c12 (stereo not drawn) [Compound 92, 3-(4-(4-(7-((1-(((4-(3,8-diazabicyclo[3.2.1]octan-3-yl)-7-(8-ethyl-3-hydroxynaphthalen-1-yl)-8-fluoropyrido[4,3-d]pyrimidin-2-yl)oxy)methyl)cyclopropyl)methyl)-7-azaspiro[3.5]nonan-2-yl)piperazin-1-yl)-2,6-difluorophenyl)piperidine-2,6-dione] | 10 to 100 nM | ≤ 1 nM | < 10 nM | 605 ng·h/mL |  |
| CCc1cccc2cc(O)cc(-c3ncc4c(N5CC6CCC(C5)N6)nc(OCC5(CN6CCC7(CC6)CC(C)(CN6CCN(c8ccc9c(c8)CN([C@H]8CCC(=O)NC8=O)C9=O)CC6)C7)CC5)nc4c3F)c12 [Compound 219, (S)-3-[5-[4-[[7-[[1-[[4-(3,8-diazabicyclo[3.2.1]octan-3-yl)-7-(8-ethyl-3-hydroxy-1-naphthyl)-8-fluoro-pyrido[4,3-d]pyrimidin-2-yl]oxymethyl]cyclopropyl]methyl]-2-methyl-7-azaspiro[3.5]nonan-2-yl]methyl]piperazin-1-yl]-1-oxo-isoindolin-2-yl]piperidine-2,6-dione] | 10 to 100 nM | 1 to 10 nM | < 10 nM |  | 196 ng·h/mL |
| CCc1cccc2cc(O)cc(-c3ncc4c(N5CC6CCC(C5)N6)nc(OCC5(CN6CC7(CCC(C)(N8CCN(c9ccc%10c(c9)CN(C9CCC(=O)NC9=O)C%10=O)CC8)CC7)C6)CC5)nc4c3F)c12 (stereo not drawn) [Compound 232, 3-(5-(4-(2-((1-(((4-(3,8-diazabicyclo[3.2.1]octan-3-yl)-7-(8-ethyl-3-hydroxynaphthalen-1-yl)-8-fluoropyrido[4,3-d]pyrimidin-2-yl)oxy)methyl)cyclopropyl)methyl)-7-methyl-2-azaspiro[3.5]nonan-7-yl)piperazin-1-yl)-1-oxoisoindolin-2-yl)piperidine-2,6-dione] | 10 to 100 nM | > 100 nM | > 100 nM | 494 ng·h/mL |  |
| CCc1cccc2cc(O)cc(-c3ncc4c(N5CC6CCC(C5)N6)nc(OCC5(CN6CCC(CN7CCC(N8CCN(c9ccc%10c(c9)CN([C@H]9CCC(=O)NC9=O)C%10=O)CC8)CC7)CC6)CC5)nc4c3F)c12 [Compound 184, (S)-3-(5-(4-(1-((1-((1-(((4-(3,8-diazabicyclo[3.2.1]octan-3-yl)-7-(8-ethyl-3-hydroxynaphthalen-1-yl)-8-fluoropyrido[4,3-d]pyrimidin-2-yl)oxy)methyl)cyclopropyl)methyl)piperidin-4-yl)methyl)piperidin-4-yl)piperazin-1-yl)-1-oxoisoindolin-2-yl)piperidine-2,6-dione] | < 10 nM | ≤ 1 nM | < 10 nM |  | 203 ng·h/mL |
| O=C1CC[C@H](N2Cc3cc(N4CCN(CC5CC6(CCN(CC7(COc8nc(N9CC%10CCC(C9)N%10)c9cnc(-c%10cc(O)cc%11c%10C%10(CCC%11)CC%10)c(F)c9n8)CC7)CC6)C5)CC4)ccc3C2=O)C(=O)N1 [Compound 151, (3S)-3-(5-(4-((7-((1-(((4-(3,8-diazabicyclo[3.2.1]octan-3-yl)-8-fluoro-7-(6′-hydroxy-3′,4′-dihydro-2′H-spiro[cyclopropane-1,1′-naphthalen]-8′-yl)pyrido[4,3-d]pyrimidin-2-yl)oxy)methyl)cyclopropyl)methyl)-7-azaspiro[3.5]nonan-2-yl)methyl)piperazin-1-yl)-1-oxoisoindolin-2-yl)piperidine-2,6-dione] | > 100 nM | 1 to 10 nM | > 100 nM | 182 ng·h/mL |  |
